Source: patent US20250326748A1, “COMPOUNDS AND METHODS FOR MODULATING SPLICING” (REMIX THERAPEUTICS INC., priority 2022, published 2025)
Structures can show the parent of a compound that is named as a salt. Where two headings read alike, the source gives them in different places.

What was measured:
HiBiT-tagged HTT protein = experiment: HiBiT protein abundance assay, HTT (K562 HiBiT knock-in); assay type: cell-based, human; conditions: HiBiT knock-in cells, 24 hours
Procedure, shortened: (§1)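 Endogenously HiBiT-tagged K562 knock-in lines treated 24 h at 37 °C with 10-point 3-fold dilutions (top 10 μM final, DMSO ≤0.25%) in IMDM+1% FBS. Lytic Nano-Glo luminescence normalized to DMSO and unmodified K562 controls; four-parameter fit gives 50%-abundance concentration (IC50).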

HiBiT-tagged MYB protein = experiment: HiBiT protein abundance assay, MYB (K562 HiBiT knock-in); assay type: cell-based, human; conditions: HiBiT knock-in cells, 24 hours
Procedure, shortened: as §1

K562 cells = experiment: Cell viability, Cell Titer Glo 2.0 assay, K562; conditions: 72 hours
HTT mRNA = experiment: Splicing RT-qPCR assay, HTT canonical (CJ) and alternative (AJ) junction mRNA; assay type: cell-based, human; conditions: Homo sapiens; for IC50: canonical junction mRNA; for AC50: alternative junction mRNA, read-out: HTT AJ (AC50, increase in AJ mRNA)
Procedure, shortened: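 Cmpd 24 h, 37 °C/5% CO2; 11-pt 3x serial dilution from 10 uM final; DMSO max 0.25%. Cells: A673 (DMEM/10% FBS, pre-adhered 24 h) or K562 (IMDM/10% FBS). Lyse, DNase I, then 1-step RT-qPCR for CJ and AJ; housekeeping-normalized.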

[1] = 24 h, RT-qPCR, A673 or K562 cells, 24 hours treatment, read-out: HTT CJ (IC50, decrease in CJ mRNA)
[2] = qPCR panel, read-out: HTT CJ (decrease in CJ mRNA levels, IC50)
[3] = RT-qPCR, A673 or K562 cells, 24 hours treatment

| SMILES | IC50 (HiBiT-tagged HTT protein) [nM] | IC50 (HiBiT-tagged MYB protein) [nM] | IC50 (HTT mRNA; [1]) [nM] | IC50 (HTT mRNA; [2]) [nM] | Effect on Cell Viability, K562 (K562 cells) | AC50 (HTT mRNA; [3]) [nM] |
| --- | --- | --- | --- | --- | --- | --- |
| Cc1cn2cc(-c3cc(Cl)c4cc(N5C[C@@H](C)N[C@@H](C)C5)cnc4n3)cc(F)c2n1 [Compound 297] | 100 to 1000 | 100 to 1000 | 1000 to 10000 | 1000 to 10000 | B (100-1000 nM) | 1000 to 10000 |
| Cc1cn2cc(-c3cc(Cl)c4cc(N5C[C@H](C)N[C@@H](C)C5)cnc4n3)cc(F)c2n1 [Compound 298] | 100 to 1000 | < 100 | 100 to 1000 | 100 to 1000 | B (100-1000 nM) | 100 to 1000 |
| CN1CCC[C@@H]2CN(c3cnc4nc(-c5cc6cn(C)nc6c(F)c5O)cc(Cl)c4c3)C[C@@H]21 [Compound 303] | 100 to 1000 | 100 to 1000 | 100 to 1000 | 100 to 1000 | B (100-1000 nM) | > 10000 |
| C[C@@H]1CN(c2cnc3nc(-c4cc5cn(C)nc5c(F)c4O)cc(C4CC4)c3c2)C[C@H](C)N1 [Compound 305, 5-{4-cyclopropyl-6-[(3R,5S)-3,5-dimethylpiperazin-1-yl]-1,8-naphthyridin-2-yl}-7-fluoro-2-methylindazol-6-ol] | 1000 to 10000 | 100 to 1000 | 1000 to 10000 | 1000 to 10000 | C (1000-9999 nM) | 1000 to 10000 |
| CCN[C@@H]1CCN(c2cnc3nc(-c4cc5cn(C)nc5cc4O)ccc3c2)C1 [Compound 310, 5-{6-[(3R)-3-(ethylamino)468pyrrolidine-1-yl]-1,8-naphthyridin-2-yl}-2-methylindazol-6-ol hydrochloride] | 100 to 1000 | < 100 | < 100 | < 100 | B (100-1000 nM) | 100 to 1000 |
| Cn1cc2cc(-c3ccc4cc(N5CC[C@H](NCC6CC6)C5)cnc4n3)c(O)cc2n1 [Compound 314] | 100 to 1000 | 100 to 1000 | 100 to 1000 | 100 to 1000 | B (100-1000 nM) | 100 to 1000 |
| CN(C)C1CCN(c2cnc3nc(-c4cc5cn(C)nc5cc4O)ccc3c2)CC1 [Compound 316] | 1000 to 10000 | 100 to 1000 | 1000 to 10000 | 1000 to 10000 | B (100-1000 nM) | 1000 to 10000 |
| CCN[C@@H]1CCN(c2cnc3nc(-c4cc5cn(C)nc5cc4O)cc(Cl)c3c2)C1 [Compound 317] | < 100 | < 100 | < 100 | < 100 | A (<100 nM) | < 100 |
| C[C@@H]1CN(c2cnc3nc(-c4ccc5nn(C)cc5c4)cc(Cl)c3c2)C[C@H](C)N1 [Compound 320, 4-chloro-6-[(3R,5S)-3,5-dimethylpiperazin-1-yl]-2-(2-methylindazol-5-yl)-1,8-naphthyridine] | 1000 to 10000 | 1000 to 10000 | > 10000 | > 10000 | C (1000-9999 nM) | > 10000 |
| C[C@@H]1CN(c2cnc3nc(-c4cc(C#N)c5nn(C)cc5c4)cc(Cl)c3c2)C[C@H](C)N1 [Compound 325, 5-(4-chloro-6-((3R,5S)-3,5-dimethylpiperazin-1-yl)-1,8-naphthyridin-2-yl)-2-methyl-2H-indazole-7-carbonitrile 2,2,2-trifluoroacetate] | 1000 to 10000 | 100 to 1000 | > 10000 | > 10000 | C (1000-9999 nM) | > 10000 |
| Cc1cn2nc(-c3ccc4cc(N5C[C@@H](C)N[C@@H](C)C5)cnc4n3)cc(C)c2n1 [Compound 330] | 100 to 1000 | 100 to 1000 | 100 to 1000 | 100 to 1000 | B (100-1000 nM) | 100 to 1000 |
| Cc1cn2nc(-c3cc(Cl)c4cc(N5C[C@@H](C)N[C@@H](C)C5)cnc4n3)cc(C)c2n1 [Compound 335, 4-chloro-2-{2,8-dimethylimidazo[1,2-b]478pyridazine-6-yl}-6-[(3R,5S)-3,5-dimethylpiperazin-1-yl]-1,8-naphthyridine] | 100 to 1000 | 100 to 1000 | 100 to 1000 | 100 to 1000 | B (100-1000 nM) | 1000 to 10000 |
| CN[C@@H]1CCN(c2cnc3nc(-c4cc(C)c5nc(C)cn5n4)cc(Cl)c3c2)C1 [Compound 341] | < 100 | < 100 | < 100 | < 100 | A (<100 nM) | < 100 |
| C[C@@H]1CN(c2cnc3nc(-c4cc5cn(C)nc5cc4O)ccc3c2)C[C@H](C)N1 [Compound 343] | 1000 to 10000 | 100 to 1000 | 100 to 1000 | 1000 to 10000 | B (100-1000 nM) | 1000 to 10000 |
| Cc1cn2cc(-c3ccc4cc(N5C[C@@H](C)N[C@@H](C)C5)cnc4n3)cc(F)c2n1 [Compound 350] | 1000 to 10000 | 100 to 1000 | > 10000 | > 10000 | C (1000-9999 nM) | > 10000 |
| Cc1c(O)c(-c2cc(Cl)c3cc(N4CCNC5(CC5)C4)cnc3n2)cc2cn(C)nc12 [Compound 381] | 100 to 1000 | < 100 | 100 to 1000 | 100 to 1000 | B (100-1000 nM) | 100 to 1000 |
| Cc1cn2nc(-c3ccc4c(Cl)c(N5C[C@H](C)N[C@@H](C)C5)cnc4n3)cc(C)c2n1 [Compound 393, 5-chloro-2-{2,8-dimethylimidazo[1,2-b]pyridazin-6-yl}-6-[(3S,5S)-3,5-dimethylpiperazin-1-yl]-1,8-naphthyridine] | 100 to 1000 | < 100 | 100 to 1000 | 100 to 1000 | B (100-1000 nM) | 100 to 1000 |

The next lines start with results.

| IC50 (HiBiT-tagged HTT protein) [nM] | IC50 (HiBiT-tagged MYB protein) [nM] | IC50 (HTT mRNA; [1]) [nM] | IC50 (HTT mRNA; [2]) [nM] | SMILES | Effect on Cell Viability, K562 (K562 cells) | AC50 (HTT mRNA; [3]) [nM] |
| --- | --- | --- | --- | --- | --- | --- |
| 1000 to 10000 | 100 to 1000 | 1000 to 10000 | 1000 to 10000 | Cc1c(O)c(-c2ccc3c(C(F)(F)F)c(N4CCNCC4)cnc3n2)cc2cn(C)nc12 [Compound 302, 2,7-dimethyl-5-[6-(piperazin-1-yl)-5-(trifluoromethyl)-1,8-naphthyridin-2-yl]indazol-6-ol] | B (100-1000 nM) | > 10000 |
| 1000 to 10000 | 100 to 1000 | 1000 to 10000 | 1000 to 10000 | CN1CCC[C@H]2CN(c3cnc4nc(-c5cc6cn(C)nc6c(F)c5O)cc(Cl)c4c3)C[C@H]21 [Compound 304] | B (100-1000 nM) | 1000 to 10000 |
| 100 to 1000 | 100 to 1000 | 100 to 1000 | 100 to 1000 | CCN[C@H]1CCN(c2cnc3nc(-c4cc5cn(C)nc5cc4O)ccc3c2)C1 [Compound 311, 5-{6-[(3S)-3-(ethylamino)pyrrolidin-1-yl]-1,8-naphthyridin-2-yl}-2-methylindazol-6-ol hydrochloride] | B (100-1000 nM) | 1000 to 10000 |
| 100 to 1000 | 100 to 1000 | 100 to 1000 | 100 to 1000 | Cn1cc2cc(-c3ccc4cc(N5CC[C@@H](NCC6CC6)C5)cnc4n3)c(O)cc2n1 [Compound 313] | B (100-1000 nM) | 100 to 1000 |
| 100 to 1000 | < 100 | 100 to 1000 | 100 to 1000 | CCN[C@H]1CCN(c2cnc3nc(-c4cc5cn(C)nc5cc4O)cc(Cl)c3c2)C1 [Compound 318] | A (<100 nM) | 1000 to 10000 |
| 100 to 1000 | < 100 | 100 to 1000 | 100 to 1000 | Cc1cn2nc(-c3cc(Cl)c4cc(N5C[C@H](C)N[C@@H](C)C5)cnc4n3)cc(C)c2n1 [Compound 336] | B (100-1000 nM) | 100 to 1000 |
| < 100 | < 100 | 100 to 1000 | 100 to 1000 | CN[C@H]1CCN(c2cnc3nc(-c4cc(C)c5nc(C)cn5n4)cc(Cl)c3c2)C1 [Compound 340] | B (100-1000 nM) | 100 to 1000 |
| 100 to 1000 | < 100 | 100 to 1000 | 100 to 1000 | Cc1cn2nc(-c3cc(Cl)c4cc(N5CCC(N(C)C)CC5)cnc4n3)cc(C)c2n1 [Compound 348] | B (100-1000 nM) | 100 to 1000 |
| 100 to 1000 | < 100 | 100 to 1000 | 100 to 1000 | Cc1cn2nc(-c3cc(Cl)c4cc(N5CCC(N6CCC6)CC5)cnc4n3)cc(C)c2n1 [Compound 349] | B (100-1000 nM) | 100 to 1000 |
